Reference: the NIST ThermoML archive (doi:10.1021/acs.jced.6b00219)
Numbers after ± are expanded uncertainties.

Key:
[1] = Molar enthalpy of transition or fusion; settings: Crystal; DSC
[2] = Crystal; DTA

O=[N+]([O-])c1cn[nH]c1[N+](=O)[O-] [3,4-dinitro-1H-pyrazole]
Molar enthalpy of transition or fusion [1]: 2.81 ± 0.203 kcal/mol | Normal melting temperature [2]: 87.83 ± 1.1 °C
